Where a SMILES comes first, the peptide text is derived from it. [ ]: non-standard residue; d: D form. The star is where a group is joined. Phe(4-Br) = N[C@@H](Cc1ccc(Br)cc1)C(=O)O; Palmitoyl = CCCCCCCCCCCCCCCC(=O)*; NMeL = CN[C@@H](CC(C)C)C(=O)O; Nle = CCCC[C@H](N)C(=O)O; Aib = CC(C)(N)C(=O)O
What was measured:
[1] = tested on: Angiotensin converting enzyme 2 (ACE2); test: in vitro and in vivo; conditions: cited from earlier work
[2] = target: Human plasma kallikrein KLKB1 (Homo sapiens, UniProt P03952); test: Plasma kallikrein KLKB1 qualitative cleavage assay (MALDI-TOF)
Chain of Human plasma kallikrein KLKB1 (P03952 20-638): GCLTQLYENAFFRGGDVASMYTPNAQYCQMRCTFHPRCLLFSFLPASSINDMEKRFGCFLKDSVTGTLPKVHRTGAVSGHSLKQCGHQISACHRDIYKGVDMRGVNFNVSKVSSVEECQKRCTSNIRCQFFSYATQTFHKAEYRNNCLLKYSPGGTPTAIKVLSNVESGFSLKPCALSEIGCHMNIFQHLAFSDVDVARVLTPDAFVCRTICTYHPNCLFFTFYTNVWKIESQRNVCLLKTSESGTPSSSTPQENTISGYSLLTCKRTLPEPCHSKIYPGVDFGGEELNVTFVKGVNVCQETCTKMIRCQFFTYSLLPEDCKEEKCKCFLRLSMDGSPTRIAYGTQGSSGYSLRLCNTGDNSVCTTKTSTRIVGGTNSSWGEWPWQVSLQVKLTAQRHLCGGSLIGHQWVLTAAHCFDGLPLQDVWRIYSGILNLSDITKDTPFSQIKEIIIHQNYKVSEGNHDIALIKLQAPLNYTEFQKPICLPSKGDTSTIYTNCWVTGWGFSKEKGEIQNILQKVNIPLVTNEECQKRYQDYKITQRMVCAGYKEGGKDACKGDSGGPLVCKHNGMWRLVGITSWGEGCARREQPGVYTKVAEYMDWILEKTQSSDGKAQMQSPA
Method: Native apelin-17 (2) and apelin peptides 5, 56, 57, 58 and 59 were dissolved in Milli-Q water (1 mM). Human plasma kallikrein KLKB1 were each reconstituted in Tris buffer (100 mM TrisHCl, 10 mM CaCl2), 150 mM NaCl) and diluted with Tris buffer (50 mM TrisHCl, 250 mM NaCl) to give a KLKB1 concentration of […]. The KLKB1 enzyme was then preincubated at 37° C. for 10 minutes prior to the addition of 5 μL of apelin peptide (1 mM). Aliquots (1 μL) were taken at 1, 2, 4, 6, 12, 24, 36, and 48 hours and analyzed with MALDI-TOF mass spectrometry to qualitatively determine the time point at which degradation products could be observed (Table 4).

in vitro = conditions: human, plasma
[3] = target: T1, KLKB1 (plasma kallikrein) (Homo sapiens, UniProt P03952); test: In vitro KLKB1 stability (half-life); format: in vitro ADME; conditions: human
T1 construct: purchased Novoprotein
T1 sequence (P03952 20-638): as above

neprilysin (NEP) = neprilysin (NEP) (Homo sapiens, UniProt P08473); test: in vitro; conditions: human, pH 7.5
Chain of neprilysin (NEP) (P08473 whole entry, the tested form may be a part, canonical isoform): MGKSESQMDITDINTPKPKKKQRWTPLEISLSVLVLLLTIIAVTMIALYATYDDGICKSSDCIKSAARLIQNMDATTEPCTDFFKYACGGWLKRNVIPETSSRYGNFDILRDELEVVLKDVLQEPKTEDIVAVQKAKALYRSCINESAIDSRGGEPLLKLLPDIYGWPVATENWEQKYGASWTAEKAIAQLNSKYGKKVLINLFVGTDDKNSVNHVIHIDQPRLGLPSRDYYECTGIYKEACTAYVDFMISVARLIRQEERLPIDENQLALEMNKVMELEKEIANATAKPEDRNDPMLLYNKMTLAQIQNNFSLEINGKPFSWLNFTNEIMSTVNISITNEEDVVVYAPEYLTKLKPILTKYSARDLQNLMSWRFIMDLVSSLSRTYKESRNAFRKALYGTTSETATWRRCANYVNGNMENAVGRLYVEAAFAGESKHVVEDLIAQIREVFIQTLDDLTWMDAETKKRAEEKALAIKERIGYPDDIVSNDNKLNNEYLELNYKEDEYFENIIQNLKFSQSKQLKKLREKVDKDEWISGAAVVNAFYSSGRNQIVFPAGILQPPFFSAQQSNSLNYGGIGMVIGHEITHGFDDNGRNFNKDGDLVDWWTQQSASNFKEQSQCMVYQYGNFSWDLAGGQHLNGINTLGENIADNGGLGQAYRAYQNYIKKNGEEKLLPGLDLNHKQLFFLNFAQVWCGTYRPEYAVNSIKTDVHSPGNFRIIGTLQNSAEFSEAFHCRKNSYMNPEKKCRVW
Method: (§1) This experiment compared the in vitro NEP stability of the Arg/Leu peptides of the embodiments to native apelin isoforms and their A2 substituted counterparts. Peptides were incubated with recombinant human NEP (rhNEP, Sino Biological) at 37° C. for up to 72 h, and the extent of degradation was analyzed via LC-MS because of the overlapping elution patterns of peptide fragments. […] (McKinnie, S. M. K., et al. ChemBioChem: 17, 1495-1498 (2016)). […] (Dion, N., et al., Biochem. J.: 311, 623-627 (1995); Bateman Jr., R. C., et al., J. Biol. Chem.: 264, 6151-6157 (1989); McMurray, J. J. et al., J. Med.: 371, 993-1004 (2014)).
(§2) Apelin peptides were dissolved in Milli-Q water (1 mM). Recombinant human neprilysin (rhNEP, Sino Biological) was reconstituted in Tris buffer (100 mM Tris, 100 mM NaCl, 10 μM ZnCl2, pH 7.5). To initiate the assay, rhNEP was diluted in Tris buffer (3.1 nM final concentration), and preincubated at 37° C. for 10 minutes prior to the addition of 5 μL of apelin peptide (1 mM) and 1.5 μL internal standard dansyl-Tyr-Val-Gly-OH (1 mM). Aliquots (10 μL) were removed at 0, 1, 4, 24, and 72 h, quenched with 0.1 M EDTA (10 μL), diluted to 100 μL with Milli-Q water and analyzed by LC-MS. Assays were performed in triplicate (n=3) for each time point. Integrated peak areas of the parent apelin peptide and internal standard derived from LC-MS analyses, were extracted using Mass Hunter software (version B.04.00) and compared in positive extracted ion count modus (+EIC, extracted-ion chromatogram). […] (apelin:dansyl-YVG), to the same ratio at the different assay time points. The decrease in apelin:dansyl-YVG ratio was converted to a percentage of cleaved peptide over time.
(§3) The extent of degradation was analyzed via LC-MS because of the overlapping elution patterns of peptide fragments (NEP).
(§4) Native apelin-17 (2) and apelin peptides 5, 54, 56, 57, 58 and 59 were dissolved in Milli-Q water (1 mM). Recombinant human neprilysin (rhNEP, Sino Biological) was reconstituted in Tris buffer (100 mM Tris, 100 mM NaCl, 10 μM ZnCl2, pH 7.5). To initiate the assay, rhNEP was diluted in Tris buffer (3.1 nM final concentration) and preincubated at 37° C. for 10 min prior to the addition of 5 μL of apelin peptide (1 mM) and 1.5 μL of internal standard dansyl-Tyr-Val-Gly-OH (1 mM). Aliquots (10 μL) were removed at 0, 1, 4, 24, and 72 h, quenched with 0.1 M EDTA (10 μL), diluted to 100 μL with Milli-Q water, and analyzed by LC-MS. Assays were performed in triplicate (n=3) for each time point. Integrated peak areas of the parent apelin peptide and internal standard derived from LC-MS analyses were extracted using Mass Hunter software (version B.04.00) and compared in positive extracted ion count modus (+EIC). The extent of proteolysis was determined by comparing the initial (0 h) ratio of the integrated extracted ions of the parent apelin peptide to the internal dansyl-YVG standard (apelin/dansyl-YVG) to the same ratio at the different assay time points. The decrease in apelin/dansyl-YVG ratio was converted to a percentage of cleaved peptide over time.

KLKB1 = KLKB1 (Homo sapiens, UniProt P03952); test: Kinetic parameters for KLKB1 cleavage; format: biochemical; design: purchased Novoprotein; conditions: enzyme KLKB1
Chain of KLKB1 (P03952 20-638): as the sequence (P03952 20-638) above

[4] = tested on: recombinant human neprilysin (rhNEP, Sino Biological); test: rhNEP diluted in Tris buffer (100 mM Tris, 100 mM NaCl, 10 μM ZnCl2, pH 7.5), 3.1 nM final concentration; conditions: 37° C., up to 72 h
[5] = tested on: KLKB1 (rhKLKB1, Novoprotein); test: Human plasma kallikrein KLKB1 in Tris buffer, KLKB1 concentration of 2 ng/pL; conditions: 37° C., up to 48 hours
NEP = NEP (Homo sapiens, UniProt P08473); test: Neprilysin degradation assay (LC-MS, quantitative); conditions: rhNEP, 37° C., up to 72 h, LC-MS
Chain of NEP (P08473 whole entry): as the sequence (P08473 whole entry, the tested form may be a part, canonical isoform) above
Method: as §1, §2, §3, §4

Degradation Onset Timepoint with KLKB1 [2] [h]	half-life [3] [h]	half-life (neprilysin (NEP)) [h]	Compound	cleaved bond [1]	also measured
–	–	–	LVQPRGSRNGPGPWQGGRRKFRR-QRPRLSHKGPMPF	Pro-Phe	–
<0.5	0.7	1	CCCC[C@H](NC(=O)[C@@H]1CCCN1C(=O)CNC(=O)[C@H](CCCCN)NC(=O)[C@H](Cc1c[nH]cn1)NC(=O)[C@H](CO)NC(=O)[C@H](CC(C)C)NC(=O)[C@H](CCCNC(=N)N)NC(=O)[C@@H]1CCCN1C(=O)[C@H](CCCNC(=N)N)NC(=O)[C@H](CCC(N)=O)NC(=O)[C@H](CCCNC(=N)N)NC(=O)[C@H](CCCNC(=N)N)NC(=O)[C@H](Cc1ccccc1)NC(=O)[C@@H](N)CCCCN)C(=O)NC(C)(C)C(=O)N[C@@H](Cc1ccc(Br)cc1)C(=O)O [Peptide 5] (H-KFRRQRPRLSHKGP[Nle][Aib][Phe(4-Br)]-OH; C-terminus assumed)	–	remaining at 0.5 h, 80 µM (in vitro): 43 ± 1%; remaining at 1 h, 80 µM (in vitro): 35 ± 5%; Km (KLKB1): 30 ± 4 µM; kcat (KLKB1): 1.4 ± 0.2 s⁻¹
–	–	–	(Pyr)RPRLSHKGPMPF	Pro-Phe	not cleaved [4]: C-terminal dipeptide excision was not observed
–	–	–	KFRRQRPRLSHKGPMPF	Pro-Phe	not cleaved [4]: C-terminal dipeptide excision was not observed; cleaved bond [5]: Arg3-Arg4, <30 min
–	–	–	Lys-Phe-Arg-Arg-Gln-Arg-Pro-Arg-NMeLeu-Ser-His-Lys-Gly-Pro-Nle-Aib-paraBrPhe	–	cleaved bond [4]: Nle15-Aib16, minor; cleaved bond [5]: Arg3-Arg4
2	2.1	> 30	CCCCCCCCCCCCCCCC(=O)N[C@@H](CCCCN)C(=O)N[C@@H](Cc1ccccc1)C(=O)N[C@@H](CCCNC(=N)N)C(=O)N[C@@H](CCCNC(=N)N)C(=O)N[C@@H](CCC(N)=O)C(=O)N[C@@H](CCCNC(=N)N)C(=O)N1CCC[C@H]1C(=O)N[C@@H](CCCNC(=N)N)C(=O)N(C)[C@@H](CC(C)C)C(=O)N[C@@H](CO)C(=O)N[C@@H](Cc1cnc[nH]1)C(=O)N[C@@H](CCCCN)C(=O)NCC(=O)N1CCC[C@H]1C(=O)N[C@@H](CCCC)C(=O)NC(C)(C)C(=O)N[C@@H](Cc1ccc(Br)cc1)C(=O)O [Peptide 58] (Palmitoyl-KFRRQRPR[NMeL]SHKGP[Nle][Aib][Phe(4-Br)]-OH)	–	–
1	1	1.5	CCCCCCCCCCCCCCCC(=O)N[C@@H](CCCCN)C(=O)N[C@@H](Cc1ccccc1)C(=O)N[C@@H](CCCNC(=N)N)C(=O)N[C@@H](CCCNC(=N)N)C(=O)N[C@@H](CCC(N)=O)C(=O)N[C@@H](CCCNC(=N)N)C(=O)N1CCC[C@H]1C(=O)N[C@@H](CCCNC(=N)N)C(=O)N[C@@H](CC(C)C)C(=O)N[C@@H](CO)C(=O)N[C@@H](Cc1cnc[nH]1)C(=O)N[C@@H](CCCCN)C(=O)NCC(=O)N1CCC[C@H]1C(=O)N[C@@H](CCCC)C(=O)NC(C)(C)C(=O)N[C@@H](Cc1ccc(Br)cc1)C(=O)O [Peptide 56] (Palmitoyl-KFRRQRPRLSHKGP[Nle][Aib][Phe(4-Br)]-OH)	–	–
–	–	–	CSCC[C@H](NC(=O)[C@@H]1CCCN1C(=O)CNC(=O)[C@H](CCCCN)NC(=O)[C@H](Cc1cnc[nH]1)NC(=O)[C@H](CO)NC(=O)[C@H](CC(C)C)NC(=O)[C@H](CCCNC(=N)N)NC(=O)[C@@H]1CCCN1C(=O)[C@H](CCCNC(=N)N)NC(=O)[C@@H]1CCC(=O)N1)C(=O)N1CCC[C@H]1C(=O)N[C@@H](Cc1ccccc1)C(=O)O [Peptide 1, reference compound]	–	in vitro NEP proteolytic stability (in words) (NEP): degraded by NEP at rates comparable to those previously reported

— US10640545B2 (THE GOVERNORS OF THE UNIVERSITY OF ALBERTA, priority 2017, dated 2020)
